# Measurements: US20050065203A1, “Method of reducing type 2 diabetes in high risk patients” (priority 2001, published 2005)
# Read-outs that look alike come from different tables or passages of the source.
# Tests used:
# [1] = test system: patients without known diabetes but with vascular disease; experiment: Heart Outcomes Prevention Evaluation (HOPE) trial: new diagnosis of diabetes; type: in vivo, human; details: for New Diabetes With Glycated Hemoglobulin ≧ 110%, ULN, RR (85%) CI) / New Diabetes With Oral Agents or Insulin, RR (85%) CI) / New Diabetes With Oral Agents or insulin and Glycated Hemoglobulin ≧ 110%, ULN, RR (85%) CI) / New Diabetes, RR (85%) CI): vs placebo
# Protocol: The design of the Heart Outcomes Prevention Evaluation (HOPE) trial has been described in detail in previous publications. Briefly, individuals who were 55 years or older with no evidence of left ventricular dysfunction or heart failure and who had evidence of vascular disease or who had diabetes and one other risk factor were eligible as long as they had no indication or contraindication to receiving an ACE-inhibitor. The study was conducted in 26 hospitals in 19 countries from 1994 to 1999. All patients provided written informed consent.
# Of 10576 eligible patients who participated in a run-in period during which they received 2.5 mg ramipril once daily for 1 week followed by matching placebo for 10 to 14 days, 1035 (9.8%) were excluded from randomization (3.2% for side effects, 3.7% for lack of consent). […] In the following it is primarily foccuessed on the latter group of patients. Of these patients, 5720 were randomized to receive up to 10 mg of ramipril once per day or equivalent placebo. One hundred sixty-seven patients who were randomized to receive a low dose (2.5 mg/day) of ramipril as part of the Study to Evaluate Carotid Ultrasound changes with Ramipril and Vitamin E (SECURE). Substudy results are not included. All randomized patients were also randomized to receive 400 IU of Vitamin E or placebo.
# Follow-up visits occurred at 1 month and 6 months after randomization and then every 6 months (mean follow-up of 4.5 years). At each visit, it was documented whether the diagnosis of diabetes had been made since the last visit.
# The primary outcome of this analysis is a new diagnosis of diabetes recorded on the basis of self-report. […] Hemoglobin A1c (HbA1c) levels and medications used among those diagnosed as having diabetes were also recorded. The HbA1c levels; were determined locally. Values higher than 110% of the upper limit of normal for each laboratory were considered to be biochemical confirmation of diabetes.
# Survival curves utilizing the Kaplan Meier and log-rank procedures were used to describe and compare the results in the 2 treatment groups. Because of the factorial design, all analyses were stratified for randomization to vitamin E or placebo. Subgroup analyses were conducted using tests of interaction in the Cox regression model.
# Design, Setting and Participants: The randomized, controlled Heart Outcomes Prevention Evaluation trial of 5720 patients older than 55 years without known diabetes but with vascular disease who were followed up for a mean of 4.5 years. The study included 267 hospitals in 19 countries and was conducted between 1994 and 1999.
# Intervention: Patients were randomly assigned to receive ramipril, up to 10 mg/d (n=2837), or placebo (n=2883).
# Main Outcome Measure: Diagnosis of diabetes determined from self-report at follow-up visits every 6 months, compared between the 2 groups.
# [2] = test system: patients without known diabetes but with vascular disease; details: study participants without known diabetes at randomization (N Engl J. Med. 2000); cited from earlier work
# [3] = SECURE study, P=0.03, cited from earlier work
# [4] = patients with diabetes in HOPE, serial annual recordings, first 2 years; cited from earlier work
# [5] = test system: people at high risk, with and without a diagnosis of diabetes; details: cited from earlier work
# [6] = ramipril up to 10 mg/d (n=2837), mean follow-up 4.5 years
# [7] = subgroup Body mass index >27.7 Kg/m^2
# [8] = subgroup Without microalbuminuria
compound,measurement,setting,value
Vitamin E,effect on diabetes,[1]; 400 IU Vitamin E vs placebo,did not differ
CCOC(=O)[C@H](CCc1ccccc1)N[C@@H](C)C(=O)N1[C@H](C(=O)O)C[C@@H]2CCC[C@@H]21 [ramipril],"New Diabetes With Glycated Hemoglobulin ≧ 110%, ULN, No. of patients",[1]; No new MA or ON,42
same,"New Diabetes With Glycated Hemoglobulin ≧ 110%, ULN, proportion of patients (in parentheses)",[1]; No new MA or ON,1.7
same,"New Diabetes With Oral Agents or Insulin, No. of patients",[1]; No new MA or ON,45
same,"New Diabetes With Oral Agents or Insulin, proportion of patients (in parentheses)",[1]; No new MA or ON,1.8
same,"New Diabetes With Oral Agents or insulin and Glycated Hemoglobulin ≧ 110%, ULN, No. of patients",[1]; No new MA or ON,30
same,"New Diabetes With Oral Agents or insulin and Glycated Hemoglobulin ≧ 110%, ULN, proportion of patients (in parentheses)",[1]; No new MA or ON,1.2
same,"New Diabetes, No. of patients",[1]; No new MA or ON,82
same,"New Diabetes, proportion of patients (in parentheses)",[1]; No new MA or ON,3.3
same,"New Diabetes With Glycated Hemoglobulin ≧ 110%, ULN, RR (85%) CI)",[1]; No new MA or ON,0.66 (0.48-0.98)
same,"New Diabetes With Oral Agents or Insulin, RR (85%) CI)",[1]; No new MA or ON,0.56 (0.39-0.81)
same,"New Diabetes With Oral Agents or insulin and Glycated Hemoglobulin ≧ 110%, ULN, RR (85%) CI)",[1]; No new MA or ON,0.60 (0.38-0.94)
same,"New Diabetes, RR (85%) CI)",[1]; No new MA or ON,0.67 (0.51-0.89)
same,"New Diabetes With Glycated Hemoglobulin ≧ 110%, ULN, No. of patients",[1]; No primary event,45
same,"New Diabetes With Glycated Hemoglobulin ≧ 110%, ULN, proportion of patients (in parentheses)",[1]; No primary event,1.8
same,"New Diabetes With Oral Agents or Insulin, No. of patients",[1]; No primary event,54
same,"New Diabetes With Oral Agents or Insulin, proportion of patients (in parentheses)",[1]; No primary event,2.2
same,"New Diabetes With Oral Agents or insulin and Glycated Hemoglobulin ≧ 110%, ULN, No. of patients",[1]; No primary event,32
same,"New Diabetes With Oral Agents or insulin and Glycated Hemoglobulin ≧ 110%, ULN, proportion of patients (in parentheses)",[1]; No primary event,1.3
same,"New Diabetes, No. of patients",[1]; No primary event,93
same,"New Diabetes, proportion of patients (in parentheses)",[1]; No primary event,3.8
same,"New Diabetes With Oral Agents or Insulin, RR (85%) CI)",[1]; No primary event,0.58 (0.42-0.82)
same,"New Diabetes With Oral Agents or insulin and Glycated Hemoglobulin ≧ 110%, ULN, RR (85%) CI)",[1]; No primary event,0.51 (0.33-0.78)
same,"New Diabetes, RR (85%) CI)",[1]; No primary event,0.69 (0.53-0.91)
same,"New Diabetes With Glycated Hemoglobulin ≧ 110%, ULN, No. of patients",[1]; With new MA or ON,10
same,"New Diabetes With Glycated Hemoglobulin ≧ 110%, ULN, proportion of patients (in parentheses)",[1]; With new MA or ON,2.8
same,"New Diabetes With Oral Agents or insulin and Glycated Hemoglobulin ≧ 110%, ULN, No. of patients",[1]; With new MA or ON,6
same,"New Diabetes With Oral Agents or insulin and Glycated Hemoglobulin ≧ 110%, ULN, proportion of patients (in parentheses)",[1]; With new MA or ON,1.7
same,"New Diabetes, No. of patients",[1]; With new MA or ON,20
same,"New Diabetes, proportion of patients (in parentheses)",[1]; With new MA or ON,5.8
same,"New Diabetes With Glycated Hemoglobulin ≧ 110%, ULN, RR (85%) CI)",[1]; With new MA or ON,0.47 (0.23-0.98)
same,"New Diabetes With Oral Agents or insulin and Glycated Hemoglobulin ≧ 110%, ULN, RR (85%) CI)",[1]; With new MA or ON,0.32 (0.13-0.79)
same,"New Diabetes, RR (85%) CI)",[1]; With new MA or ON,0.65 (0.38-1.12)
same,"New Diabetes With Oral Agents or Insulin, No. of patients",[1]; With new NA or ON,14
same,"New Diabetes With Oral Agents or Insulin, proportion of patients (in parentheses)",[1]; With new NA or ON,3.9
same,"New Diabetes With Oral Agents or Insulin, RR (85%) CI)",[1]; With new NA or ON,0.61 (0.32-1.16)
same,"New Diabetes With Glycated Hemoglobulin ≧ 110%, ULN, No. of patients",[1]; With primary event,7
same,"New Diabetes With Glycated Hemoglobulin ≧ 110%, ULN, proportion of patients (in parentheses)",[1]; With primary event,1.9
same,"New Diabetes With Oral Agents or Insulin, No. of patients",[1]; With primary event,5
same,"New Diabetes With Oral Agents or Insulin, proportion of patients (in parentheses)",[1]; With primary event,1.3
same,"New Diabetes With Oral Agents or insulin and Glycated Hemoglobulin ≧ 110%, ULN, No. of patients",[1]; With primary event,4
same,"New Diabetes With Oral Agents or insulin and Glycated Hemoglobulin ≧ 110%, ULN, proportion of patients (in parentheses)",[1]; With primary event,1.1
same,"New Diabetes, No. of patients",[1]; With primary event,9
same,"New Diabetes, proportion of patients (in parentheses)",[1]; With primary event,2.4
same,"New Diabetes With Glycated Hemoglobulin ≧ 110%, ULN, RR (85%) CI)",[1]; With primary event,0.59 (0.24-1.43)
same,"New Diabetes With Oral Agents or Insulin, RR (85%) CI)",[1]; With primary event,0.42 (0.15-1.14)
same,"New Diabetes With Oral Agents or insulin and Glycated Hemoglobulin ≧ 110%, ULN, RR (85%) CI)",[1]; With primary event,0.54 (0.17-1.72)
same,"New Diabetes, RR (85%) CI)",[1]; With primary event,0.48 (0.21-0.98)
same,"patients diagnosed to have diabetes and glycated hemoglobin of 110% or more above upper limit of normal, %",[1]; ramipril group,1.8%
same,"patients with new diabetes meeting all criteria, %",[1]; ramipril group,1.3%
same,"patients with new diabetes receiving an oral glucose lowering agent or insulin, %",[1]; ramipril group,2.1%
same,"individuals who reported a new diagnosis of diabetes, %",[1]; [6],3.6%
same,"individuals who reported a new diagnosis of diabetes, No.",[1]; [6],102 and One hundred and two
same,relative risk of diabetes diagnosis with glycated hemoglobin of 110% or more of ULN,[1]; ramipril vs placebo,0.60
same,relative risk of new diabetes meeting all criteria,[1]; ramipril vs placebo,0.51
same,relative risk of new diabetes with oral glucose lowering agent or insulin,[1]; ramipril vs placebo,0.56
same,relative risk of new diagnosis of diabetes,[1]; ramipril vs placebo,0.66
same,No. With Diabetes,[1]; subgroup,39
same,(%) With Diabetes,[1]; [7],(5.8) %
same,No. With Diabetes,[1]; [7],63
same,(%) With Diabetes,[1]; subgroup Body mass index ≦7.7 Kg/m^2,(2.2) %
same,(%) With Diabetes,[1]; subgroup Not taking diuretics,(3.4) %
same,No. With Diabetes,[1]; subgroup Not taking diuretics,84
same,(%) With Diabetes,[1]; subgroup Not taking β-blocker,(3.3) %
same,No. With Diabetes,[1]; subgroup Not taking β-blocker,50
same,(%) With Diabetes,[1]; subgroup Taking diuretics,(5.0) %
same,No. With Diabetes,[1]; subgroup Taking diuretics,18
same,(%) With Diabetes,[1]; subgroup Taking β-blocker,(4.0) %
same,No. With Diabetes,[1]; subgroup Taking β-blocker,52
same,(%) With Diabetes,[1]; subgroup Waist-hip ratio >0.93,(4.4) %
same,No. With Diabetes,[1]; subgroup Waist-hip ratio >0.93,63
same,(%) With Diabetes,[1]; subgroup Waist-hip ratio ≦0.93,(2.8) %
same,No. With Diabetes,[1]; subgroup Waist-hip ratio ≦0.93,39
same,(%) With Diabetes,[1]; subgroup With hypertension,(4.2) %
same,No. With Diabetes,[1]; subgroup With hypertension,49
same,(%) With Diabetes,[1]; subgroup With microalbuminuria,(4.2) %
same,No. With Diabetes,[1]; subgroup With microalbuminuria,17
same,(%) With Diabetes,[1]; subgroup Without hypertension,(3.2) %
same,No. With Diabetes,[1]; subgroup Without hypertension,53
same,(%) With Diabetes,[1]; [8],(3.5) %
same,No. With Diabetes,[1]; [8],85
same,relative risk for diabetes,"[1]; subgroup who never took diuretics or β-blockers during the study, ramipril vs placebo",0.62
same,development of diabetes,[2],reduced
same,increase in fasting glucose,[3]; placebo 0.41 mmols,0.25 mmols
same,increase in fasting glucose,[3]; placebo 15.8 mg/dL,9.6 mg/dL
same,"reduction in HbA10 levels, absolute difference",[4],0.2%
same,"myocardial infarction, strokes, death, and the development of diabetic nephropathy",[5],reduces
